# Results as given in US11039618B2, “Metam salts and polysulfide soil treatment” (Tessenderlo Kerley, Inc, priority 2016, dated 2021).
# Experiments:
# Verticillium = experiment: Jar test 2016: Verticillium microsclerotia colonies in treated soil, dry soil plating on NP-10; type: cell-based, Verticillium dahliae; settings: Metam 40 gal/acre (190 kg active/ha); 2016
# Description: These investigations were performed under laboratory conditions in an initial jar test. We also investigated the pathogen control efficacy of LSS treatments, at 30 gal/acre (90 pounds/acre or 101 Kg/ha of calcium polysulfide) and at 90 gal/acre (276 pounds/acre or 310 Kg/ha of calcium polysulfide), and combined Metam/LSS treatments using Sectagon® brand metam at 20 gal/acre Metam (84 pounds/acre or 94 Kg/ha of metam sodium) with 40 gal/acre LSS (122 pounds/acre or 138 Kg/ha of calcium polysulfide); and at 30 gal/acre Metam (126 pounds/acre or […] of metam sodium) with 20 gal/acre LSS (60 pounds/acre or 67 kg/ha of calcium polysulfide). […] This may be due to lower water saturation in the 2016 tests compared to the saturation in 2015 tests, which was near 100%.
# Each treatment listed in Table 1 was replicated 4 times. Verticillium levels in soil were assessed by dry incubation on semi selective media (NP-10) method. Soil collected from a Romaine lettuce field in Salinas, Calif. was used for the investigation. […]
# Experimental Setup: Seven treatments were installed in 4 replicates each. […] The equivalent of gal/acre was calculated on the assumption that on acre of soil has an average weight of 3,625,895 lbs. […] Afterwards, soil was split between the two laboratories and were assessed according to the method described.
# Verticillium levels in soil were assessed by dry incubation on semi selective media (NP-10). […]
# The quantity of Verticillium in soil was assessed by dry soil plating on NP-10 semi-selective medium. […] After that, remaining soil was gently washed off the plates and the number of Verticillium microsclerotia colonies were counted on each plate under a microscope. The number of microsclerotia colonies is used as a standard method to quantify Verticillium in soil and was extrapolated for 1 g soil.
# Results were analyzed in a one-way ANOVA (P=0.05) and a Fisher LSD Post-Hoc test. […]
# Verticillium assessments were performed parallel in two separate laboratories. […] The quantity of Verticillium in soil was assessed by dry soil plating on NP-10 semi-selective medium. […]
# soilborne fungi = experiment: Visual observation of general fungal growth on the plates (jar test); type: cell-based; settings: observed visually on the plates
# Source text: The general impact of LSS on fungal growth was also observed visually on the plates.
# soilborne disease = settings: about 40 gallons of metam sodium per acre (190 Kg/ha); commercial conditions; cited from earlier work
# Black Dot = experiment: Field test near Moses Lake, Wash.: black dot colonies in soil after shank treatment; set-up: species or system Colletotrichum coccodes; settings: single sample sites, 4 inches depth; metam 45 gal/acre; LSS 90 gal/acre; metam + LSS 30 + 30 gal/acre
# Description: A field test was performed in small plots in a grower's location in near Moses Lake, Wash. using commercial equipment, shanking the product 8-9 inches into the ground, in February 2016. A few treated areas were sampled a few months after treatment. This field is believed to be low in pest pressure. […] The mixture is compatible as a ground application, including using standard tanks, hoses, nozzles, and shanks. It is believed the product will also be stable when added to water to form a dilute product, due to the sodium or potassium hydroxide in metam. Therefore, alkali sulfide salts need not be added.
# Location 1 was treated with 45 gallons per acre of Sectagon®, the metam sodium solution, equivalent to 191 pounds metam sodium per acre. This is considered a standard treatment protocol. Section 2 was treated with only liquid lime sulfur, at 90 gallons per acre (276 pounds calcium polysulfide/acre). Section 3 was treated with 30 gallons per acre Sectagon® and 30 gallons per acre liquid lime sulfur (92 pounds calcium polysulfide and 127 pounds metam sodium per acre). The treatment chemicals were obtained from Tessenderlo Kerley. A sufficient time following the treatments, V. dahliae concentrations and black dot concentrations were determined at 4 inches depth and at 8 inches depth at three random sample sites in each treated plot. No controls were run, and the variability in samples were high. […]
# Pythium = experiment: Example 6: Pythium population in treated farm soil samples; type: cell-based; settings: soil from another location; average over rates: LSS 45 and 90 gal/acre; metam sodium 20 and 40 gal/acre; combination 20 and 40 gal metam with 45 gal LSS; untreated 150
# Description: Soil from a farm located in Washington state was treated with various solutions, and subsequently the population of Verticillium in treated samples were determined. Untreated samples contained 31 CFU per gram of dry soil. Soil treated with 90 gallons per acre liquid lime sulfur (276 pounds/acre or 309 kg/ha of calcium polysulfide) had less than 2 CFU per gram of dry soil. […] Samples treated with 170 pounds of metam sodium per acre and with a mixture of 138 pounds calcium polysulfide and 170 pounds of metam sodium per acre had about 70 to 80 CFU per gram of dry soil. […] The reason is not understood, and may reflect test protocols.
# Clearly the test protocol and/or sample variability were over-riding factors. In tests on soil from another location, untreated soil had 150 CFU Pythium per gram of dry soil.
compound,measurement,setting,value
"CNC(=S)S [Metam, sodium methyldithiocarbamate]","Microsclerotia (Verticillium) per gram of soil, ms/g, 2016",Verticillium,6.5 ms/g
same,reduction of fungal growth of soilborne fungi,soilborne fungi,~100%
same,reduction of certain soilborne disease,soilborne disease,~70%
same,"Black Dot, 4″",Black Dot,0 colonies per gram of soil
same,average CFU Pythium per gram of dry soil,Pythium,60 CFU per gram of dry soil
